Reference: PubChem BioAssay (NCI)
“And” between values parts separate entries of the source, which are not always exact repeats. Equal entries are not always repeated.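 All cell lines were grown in 96-well plates and treated with compound for 48 hours. At the GI50, growth is halved. At the TGI there is no net growth.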 The source made the active and inactive calls. Rule as the data show it: active = GI50 below about 0.43 µM; inactive = the rest.

Experiments:
Assay in all cases: inhibition of tumour cell growth, NCI panel, 48 h
SF-268 CNS = test system: SF-268 CNS
A498 renal = test system: A498 renal
IGROV1 ovarian = test system: IGROV1 ovarian
SNB-78 CNS = test system: SNB-78 CNS
786-0 renal = test system: 786-0 renal
OVCAR-8 ovarian = test system: OVCAR-8 ovarian
OVCAR-4 ovarian = test system: OVCAR-4 ovarian
PC-3 prostate = test system: PC-3 prostate
EKVX NSCLC = test system: EKVX NSCLC
DMS 114 small cell lung = test system: DMS 114 small cell lung
HL-60(TB) leukemia = test system: HL-60(TB) leukemia
U251 CNS = test system: U251 CNS
HCT-15 colon = test system: HCT-15 colon
NCI-H460 lung = test system: NCI-H460 lung
BT-549 breast = test system: BT-549 breast
RPMI-8226 leukemia = test system: RPMI-8226 leukemia
DU-145 prostate = test system: DU-145 prostate
M19-MEL melanoma = test system: M19-MEL melanoma
SW-620 colon = test system: SW-620 colon
UACC-62 melanoma = test system: UACC-62 melanoma
SK-MEL-2 melanoma = test system: SK-MEL-2 melanoma
MDA-MB-435 = test system: MDA-MB-435
SF-539 CNS = test system: SF-539 CNS
CCRF-CEM leukemia = test system: CCRF-CEM leukemia
SF-295 CNS = test system: SF-295 CNS
SNB-19 CNS = test system: SNB-19 CNS
KM12 colon = test system: KM12 colon
NCI-H23 lung = test system: NCI-H23 lung
KM20L2 colon = test system: KM20L2 colon
MCF7 breast = test system: MCF7 breast
SK-OV-3 ovarian = test system: SK-OV-3 ovarian
M14 melanoma = test system: M14 melanoma
OVCAR-5 ovarian = test system: OVCAR-5 ovarian
TK-10 renal = test system: TK-10 renal
HS 578T breast = test system: HS 578T breast
A549 NSCLC = test system: A549 NSCLC
RXF 393 renal = test system: RXF 393 renal
MDA-MB-231 breast = test system: MDA-MB-231 breast
ACHN renal = test system: ACHN renal
SN12C renal = test system: SN12C renal
SK-MEL-5 melanoma = test system: SK-MEL-5 melanoma
SK-MEL-28 melanoma = test system: SK-MEL-28 melanoma
K-562 leukemia = test system: K-562 leukemia
HCC-2998 colon = test system: HCC-2998 colon
T-47D breast = test system: T-47D breast
OVCAR-3 ovarian = test system: OVCAR-3 ovarian
UACC-257 melanoma = test system: UACC-257 melanoma
DMS 273 small cell lung = test system: DMS 273 small cell lung
CAKI-1 renal = test system: CAKI-1 renal
HCT-116 colon = test system: HCT-116 colon
LOX IMVI melanoma = test system: LOX IMVI melanoma
COLO 205 colon = test system: COLO 205 colon
SNB-75 CNS = test system: SNB-75 CNS
HOP-18 NSCLC = test system: HOP-18 NSCLC
NCI-H522 lung = test system: NCI-H522 lung
MALME-3M melanoma = test system: MALME-3M melanoma
SR leukemia = test system: SR leukemia
HOP-92 NSCLC = test system: HOP-92 NSCLC
UO-31 renal = test system: UO-31 renal
NCI-H226 lung = test system: NCI-H226 lung
HOP-62 NSCLC = test system: HOP-62 NSCLC
MOLT-4 leukemia = test system: MOLT-4 leukemia
HT29 colon = test system: HT29 colon
MDA-N = test system: MDA-N

## COc1cccc2c1C(=O)c1c(O)c3c(c(O)c1C2=O)C[C@@](O)(C(=O)CO)C[C@@H]3OC1CC(N)C(O)C(C)O1 (some centres undefined)
SF-268 CNS
  GI50: 219 nM
  outcome: inactive
A498 renal
  GI50: 81.4 nM and 195 nM
  TGI: 550 nM and 696 nM
  outcome: inactive
IGROV1 ovarian
  GI50: 272 nM
  outcome: inactive
SNB-78 CNS
  TGI: 8730 nM
786-0 renal
  outcome: inactive
OVCAR-8 ovarian
  outcome: inactive
OVCAR-4 ovarian
  TGI: 5.19 µM [middle of 4 runs]
  outcome: inactive
PC-3 prostate
  outcome: inactive
EKVX NSCLC
  outcome: inactive
DMS 114 small cell lung
  TGI: 591 nM
HL-60(TB) leukemia
  outcome: inactive
U251 CNS
  outcome: inactive
HCT-15 colon
  GI50: 3880 nM
  outcome: inactive
NCI-H460 lung
  outcome: inactive
BT-549 breast
  outcome: inactive
RPMI-8226 leukemia
  outcome: inactive
DU-145 prostate
  GI50: 169 nM [middle of 4 runs]
  outcome: inactive
M19-MEL melanoma
  TGI: 974 nM
SW-620 colon
  outcome: inactive
UACC-62 melanoma
  GI50: 149 nM
  outcome: inactive
SK-MEL-2 melanoma
  outcome: inactive
MDA-MB-435
  GI50: 607 nM
  TGI: 1.87 µM [middle of 4 runs]
  outcome: inactive
SF-539 CNS
  GI50: 191 nM
  outcome: inactive
CCRF-CEM leukemia
  outcome: inactive
SF-295 CNS
  GI50: 210 nM
  outcome: inactive
SNB-19 CNS
  outcome: inactive
KM12 colon
  outcome: inactive
NCI-H23 lung
  outcome: inactive
KM20L2 colon
  TGI: 15900 nM
MCF7 breast
  outcome: inactive
SK-OV-3 ovarian
  outcome: inactive
M14 melanoma
  GI50: 432 nM
  outcome: inactive
OVCAR-5 ovarian
  TGI: 5.37 µM [middle of 4 runs]
  outcome: inactive
TK-10 renal
  outcome: inactive
HS 578T breast
  GI50: < 10 nM
  outcome: inactive
A549 NSCLC
  GI50: 109 nM and 60.9 nM and 106 nM
  outcome: inactive
RXF 393 renal
  GI50: 402 nM
  TGI: 1.04 µM [middle of 4 runs]
  outcome: inactive
MDA-MB-231 breast
  GI50: 949 nM
  TGI: 4.83 µM [middle of 4 runs]
  outcome: inactive
ACHN renal
  GI50: 105 nM and 81 nM and 176 nM
  outcome: inactive
SN12C renal
  outcome: inactive
SK-MEL-5 melanoma
  TGI: 340 nM [middle of 5 runs]
  outcome: inactive
SK-MEL-28 melanoma
  GI50: 593 nM
  TGI: 1.7 µM [middle of 4 runs]
  outcome: inactive
K-562 leukemia
  GI50: 218 nM
  outcome: inactive
HCC-2998 colon
  outcome: inactive
T-47D breast
  outcome: inactive
OVCAR-3 ovarian
  outcome: inactive
UACC-257 melanoma
  outcome: inactive
DMS 273 small cell lung
  TGI: 2450 nM
CAKI-1 renal
  outcome: inactive
HCT-116 colon
  outcome: inactive
LOX IMVI melanoma
  GI50: 39.2 nM and 91.7 nM
COLO 205 colon
  GI50: 498 nM
  outcome: inactive
SNB-75 CNS
  GI50: 245 nM
  outcome: inactive
HOP-18 NSCLC
  TGI: 13600 nM
NCI-H522 lung
  GI50: 193 nM
  outcome: inactive
MALME-3M melanoma
  GI50: 136 nM
  TGI: 628 nM [middle of 5 runs]
  outcome: inactive
SR leukemia
  outcome: inactive
HOP-92 NSCLC
  GI50: 306 nM
  outcome: inactive
UO-31 renal
  GI50: 1850 nM
  outcome: inactive
NCI-H226 lung
  outcome: inactive
HOP-62 NSCLC
  GI50: 145 nM
  outcome: inactive
MOLT-4 leukemia
  GI50: < 22.1 nM
  outcome: inactive
HT29 colon
  outcome: inactive
MDA-N
  TGI: 1110 nM and 1880 nM and 1410 nM
  outcome: inactive
